US20210029993A1, “SPATIAL INHIBITORS, DETERRENTS AND REPELLENTS FOR MOSQUITOES AND MIDGES” (BEDOUKIAN RESEARCH, INC., priority 2005, published 2021)

Assays:
[1] = test system: mosquitoes; assay: Limonene tested against mosquitoes (background); type: in vivo; conditions: background statement
[2] = test system: mosquitoes and biting midges; conditions: related art; cited from earlier work
[3] = test system: female mosquitoes (Aedes aegypti); assay: Mosquitoes feeding test (Plexiglas module, treated membrane over dyed sucrose/ATP solution); type: in vivo; conditions: feeding relative to control, FIGS. 1 and 3
Protocol: (§1) The test was conducted at 0900-2100 hours in a walk-in incubator (26° C., 63-80% RH) illuminated by fluorescent lights. Mosquitoes were tested in a two-piece Plexiglas module designed to assess their response to feeding deterrents. The bottom piece of the module was 40×7×4-cm hollow platform supporting six circular wells (diameter=3.8 cm, depth=6 mm). Water (40° C.) flowed through the central cavity of the platform at a rate of 215 ml/min. The top piece of the module consisted of six 4.5×4.0×5.0 cm chambers, the floors of which were fitted with a sliding door positioned over a circular opening 3.5 cm in diameter. Mosquitoes were introduced through an aperture 1 cm in diameter on the front wall of the chambers. For each test, five female mosquitoes (Aedes aegypti) were aspirated into each of five chambers of the top module piece and the apertures were plugged with corks wrapped in plastic film. The wells on the bottom piece of the module were filled with 7 ml of 10% sucrose solution containing ATP (2.9 mg/ml). To each well, 75 μl of green dye (McCormick Food, Hunt Valley, Md.) were added so that those mosquitoes imbibing the sugar solution could be identified when crushed at the end of the tests. Each membrane received 50 ul of acetone or experimental compound solution, applied to 9.6 cm^2 circular area on 0.1 mm-thick membranes made of nylon mesh in a silicone matrix. The membranes were then placed over each well in contact with the sugar solution.
(§2) The circular openings on the floor of each chamber of the top piece of the module were aligned with each membrane-covered well of the bottom piece. The sliding floors of the chambers were then opened allowing mosquitoes access to the membranes. The number of mosquitoes landing on the membranes, and those flying within the apparatus, were recorded each minute for five minutes. After five minutes, any mosquitoes remaining on the membranes were removed with a metal wire, and the door of the floor of each chamber was closed. The top piece of the module was then placed into a freezer for 20 minutes. In the test designed to assess feeding, mosquitoes were removed from the frozen module, crushed on white paper towels, and examined for the presence of green dye to indicate that feeding had occurred. The proportions of mosquitoes feeding per trial were analyzed using a standard generalized linear model with a logit link. Landing and flying scores are repeated measures; five reading were obtained for groups of five mosquitoes. Thus, to maintain independence among the data, the five readings were summed, and then the sums divided by 25 (the maximum score in each category) to create proportions of mosquitoes landing and flying. The proportions were then transferred using the standard variance stabilizing transformation for proportions (sin^−1 √y, where y is the proportion), and analyzed using ANOVA (Analysis of Variables)
In Table 1, weight percent (wt %) refers to the weight of the deterring/repelling/inhibiting compound, or combination of compounds, in the composition used in the tests. […] The weight ratio of the compounds in the combination of compounds is given in parentheses in the “Compound(s)” column of Table 1.

[4] = test system: female mosquitoes (Aedes aegypti); assay: Mosquitoes flying test (Plexiglas module, mosquitoes flying within the apparatus); type: in vivo; conditions: flying relative to control, FIGS. 2 and 4
Protocol: as §1, §2
In Table 2, weight percent (wt %) refers to the weight of the deterring/repelling/inhibiting compound, or combination of compounds, in the composition used in the tests. […] The weight ratio of the compounds in the combination of compounds is given in parentheses in the “Compound(s)” column of Table 2.

[5] = test system: mosquitoes; assay: Spatial inhibition of mosquitoes, outdoor Mosquito Magnet Liberty Plus trap catch; type: in vivo; conditions: two grams of test compound on absorbent material in CO2 and r-octenol stream of trap; 2-5 days; FIG. 5
Protocol: Two grams of test compound was absorbed onto pieces of absorbent material. These pieces of absorbent material (fragrance release material from Rhopore Inc.) containing absorbed test compound were then placed in a stream of CO2 and r-octenol being released from an American Biophysics Mosquito Magnet Liberty Plus mosquito trap designed to attract mosquitoes. The test were rotated over a period of 2-5 days in such a manner that both control (trap without test compound) and test compound were tested an equal number of times in each trap employed. The number of mosquitoes caught in the traps with test compounds was compared to the number of mosquitoes caught in the trap with no test compound material present. […] Thus, a lowered percentage is indicative of the increasing ability of the test compounds to inhibit the ability of the mosquitoes sense the target. […] In Table 3, weight percent (wt %) refers to the weight of the deterring/repelling/inhibiting compound, or combination of compounds, in the composition used in the tests. In the “Percent Caught Relative to Control” column in Table 3, a lower percentage is indicative of the increasing ability of the test compounds to inhibit the ability of the mosquitoes sense the target. The weight ratio of the compounds in the combination of compounds is given in parentheses in the “Compound(s)” column of Table 3.

C=C(C)C1CC=C(C)CC1 (stereo not drawn) [limonene]
repellent or spatial inhibitor efficacy against mosquitoes, in words [1]: not found to be either an effective repellent or spatial inhibitor

C=CC(C)(O)CCC=C(C)C (stereo not drawn) [linalool]
spatial inhibitor efficacy, in words [2]: act as spatial inhibitors

(+)/(−) limonene oxide
contact mosquito repellent activity (feeding tests, FIGS. 1 and 3), in words [3]: especially effective as contact mosquito repellents | spatial inhibitor activity for mosquitoes (flying tests, FIGS. 2 and 4), in words [4]: particularly effective as spatial inhibitors for mosquitoes

cis and trans carveol
contact mosquito repellent activity (feeding tests, FIGS. 1 and 3), in words [3]: especially effective as contact mosquito repellents | percent mosquitoes caught relative to the control (relative catch) [5]: about 43%
